Data as given in US20070142635A1, “Process for preparing hexahydropyrimido[1,2-a]azepine-2-carboxylates and related compounds” (priority 2003, published 2007).

Target: HIV integrase (Human immunodeficiency virus type 1 group M subtype B, UniProt P04585)
Experiment: assay described in WO 02/30930 for inhibition of strand transfer in HIV integrase
Format: biochemical
Text: As is clear from the foregoing description, compounds embraced by Formula X or XI and precursors thereof are useful as intermediates in the preparation of Compounds XII, XIII and XIV, which are HIV integrase inhibitors useful, inter alia, in treating HIV infection.

For `CN(C)C(=O)C(=O)N(C)C1CCCCn2c1nc(C(=O)NCc1ccc(F)cc1)c(O)c2=O` (racemic) [Compound 14, N-(2-{[(4-fluorobenzyl)amino]carbonyl}-3-hydroxY4-oxo-4,6,7,8,9,10-hexahydropyrnidor[1,2-α]azepin-10-yl)-N,N′,N′-trimethylethanediamide], the “inhibition of strand transfer in HIV integrase” value was “exhibited activity”.
